Laboratory results taken from patent US20210330774A1, “HERV-K-DERIVED ANTIGENS AS SHARED TUMOR ANTIGENS FOR ANTI-CANCER VACCINE” (CENTRE LEON BERARD, priority 2018, published 2021).

Tests used:
Type in all cases: cell-based, human
[1] = system: T2 cells pulsed with the cognate peptide; test: ELISPOT for IFN-γ and Granzyme-β of peptide stimulated PBMCs co-cultured with T2 cells; conditions: 2.10^5 cells per well, ratio 10:1 with T2 cells, revealed after 24h
Experimental: C. Representative histograms of the number of IFN-γ+ and Granzyme-I3+ spots after 12 days stimulation and following 24h of contact with T2 cells pulsed with the cognate peptide.
Peptide stimulated PBMCs after the 12-day culture were used to perform an ELISPOT assay for IFN-γ and Granzyme-β (FIG. 2C). 2.10^5 cells per well were put in co-culture with T2 cell specific for the peptide of interest in a ratio 10:1.

[2] = system: T2 cells pulsed with HERV peptide; test: Cytotoxicity assay with T2 cells contact (intracellular IFN-γ of CD8+ T cells, FACS); conditions: for IFN-γ production, percentage of CD8+ T cells (in median): FIG. 3B, 5 different donors, day 12, T2 cells pulsed with cognate peptide; for IFN-γ production, number of CD8+ T cells: FIG. 5B, 12 different donors, day 12
Experimental: On day 12 of PBMCs culture, T2 cells were washed in RPMI and resuspended into AIM-V medium (Thermo Fisher Scientific). T2 (SD Cell line) are a lymphoblast cell line deficient in the transporter associated with antigen processing (TAP) protein, and therefore cannot present endogenous peptides on the class I MHC, but can be used to monitor the CTL response to an exogenous antigen of interest in a non-competitive environment. T2 cells were first pulsed with HERV peptide by adding 10 μg/mL of corresponding peptide to 2M T2 cell for 2 hours at 37° C. PBMCs were pooled and counted and put in co-culture with corresponding T2 cells at a respective concentration of 1:5 into a new 96 U-well plate.
After 4 hours of incubation at 37° C., cells from co-culture were washed and pooled in V-well plate according to their staining condition in FACS buffer. Zombie NIR (Biolegend) was used at 1/400 to assess viability. Anti CD3 (PercP, Biolegend) and anti CD8 (FITC, Beckman coulter) antibodies were added 1/10 per condition and left for 25 minutes at 4° C. Cells were washed again and then fixed with fixation/permeabilization solution kit (Invitrogen, Carlasbad, USA) according to the manufacturer's instructions for 15 minutes at room temperature. Cells were washed two times in FACS buffer and kept at 4° c.
On day 13, cells were permeabilized with the permeabilization solution kit (Invitrogen) for 5 minutes at room temperature and anti IFN-γ (PE, Biolegend) antibody was added 1/20 to the solution for additional 25 minutes at 4° C. Cells were washed two times and resuspended in 350 μL of FACS buffer before FACS analysis. Analysis was performed on FACS Fortessa (BD) to explore the specific cytotoxicity and degranulation against T2 cells expressing HERV sequences.

[3] = system: CD8+ T cells expanded from TNBC and ovarian tumor dilacerate; test: Dextramer staining of tumor infiltrated lymphocytes (TILs) from TNBC and ovarian cancer; conditions: day 14, FIG. 7
Experimental: Tumors were dilacerated in small pieces and digested with collagenase IV and DNAse for 45 minutes. The cells obtained were resuspended in 5% human serum RPMI and distributed in 96 well (5.10^4 cells per well). Anti-CD3/CD28 microbeads (Miltenyi biotech) were added to the well in a ratio of 1:4 with cells in the presence of IL-2 (F.C. 100 IU/ml). TILs were cultured for 14 days by changing medium at day 5, 7, 9 and 12 and the number of the cells was adapted to have 0.5×10^6 cells/ml.
At day 14 a dextramer staining was performed (see dextramer assay paragraph) for the 7 peptides of interest (P1 to P7—SEQ ID NO: 1 to 7) and dextramer specific CD8+ T cells were identified by FACS analysis in TNBC (FIG. 7A) and ovarian cancer (FIG. 7B).

CD8+ T cells = test: Dextramer assay after 12-day peptide stimulation of PBMCs from HLA-A2 donors; conditions: for dextramer positive CD8+ T cells: representative plot, day 12, peptide-stimulated PBMCs; for increase in dextramer positive CD8+ T cells, peptide stimulated versus non stimulated: FIG. 4B, 12 different donors, day 12; for ability to elicit a specific CD8+ T cell response: summary statement

Sequence | specific IFN-γ and Granzyme-β spots [1] | IFN-γ production, percentage of CD8+ T cells (in median) [2] | IFN-γ production, number of CD8+ T cells [2] | frequency of specific CD8+ T cells in the tumors [3] | dextramer positive CD8+ T cells (CD8+ T cells; FIG. 4A) | increase in dextramer positive CD8+ T cells, peptide stimulated versus non stimulated (CD8+ T cells) | ability to elicit a specific CD8+ T cell response (CD8+ T cells) | dextramer positive CD8+ T cells (CD8+ T cells; FIG. 2A)
FLQFKTWWI (HERV epitope) [P1] | specific IFN-γ and Granzyme-β spots | ~10% | significant number | more frequently represented | 0.63% | significant increase | able to elicit a specific CD8+ T cell response | 
KLIDCYTFL (epitope 3) [P3] |  | ~5% | significant number |  |  | slightly | able to elicit a specific CD8+ T cell response | 
AMIPKDWPL (HERV epitope 5) [P5] |  |  |  |  |  |  | able to elicit a specific CD8+ T cell response | 34.2%
RLIPYDWEI (epitope 2) [P2] |  | ~5% | significant number |  |  | slightly | able to elicit a specific CD8+ T cell response | 
YAMSNLFSI (HERV epitope 6) [P6] | specific IFN-γ and Granzyme-β spots |  | moderate number | more frequently represented |  | significant increase | able to elicit a specific CD8+ T cell response | 
SMDDQLNQL (HERV epitope 7) [P7] |  |  |  |  |  |  | able to elicit a specific CD8+ T cell response | 
YLSFIKILL (HERV epitope 4) [P4] |  |  |  |  |  | significant increase | able to elicit a specific CD8+ T cell response | 
